This is an account of results in patent US12083125B2, “Drug-induced epigenetic remodeling to prevent fibrosis” (Thomas Jefferson University, priority 2016, dated 2024).

The structures appear in SMILES notation. “Also recorded” adds a separate entry of the source. Where two headings read alike, the source gives them in different places.

The test system of data set [1] is cells from the ex vivo mock cataract surgery explants. Put plainly: ex vivo mock cataract surgery explants: myofibroblast emergence, αSMA and Fn-EDA expression. Type of data set: cell-based, chick. The text has this:
For example, in a PCO model, using an ex vivo lens mock cataract surgery model in chick embryos that recapitulates features of PCO, we investigated the cell reprogramming events involved in regulating changes in epigenetic markings of chromatin, which result in alterations of chromatin structure and impact gene transcriptional programs to control the emergence of myofibroblasts.
We tested this epigenetic targeting strategy using a clinically relevant ex vivo chick mock cataract surgery model that recapitulates the major features of the lens fibrotic disease, PCO, as well as a human lens cells (SRA01/04). Human SRA01/04 lens cells are studied extensively for the acquisition of a mesenchymal phenotype resulting from an Epithelial Mesenchymal Transition (EMT) after exposure to TGFβ associated with the development of lens fibrosis.
(§1) FIG. 2A illustrates how the ex vivo mock cataract surgery explants are created. Ex vivo mock cataract surgery explants provide a powerful model in which to study wound healing as well as the development of fibrotic disease. Briefly, to create this model, the fiber cell mass is hydroeluted from the lens leaving behind lens epithelial cells that remain adherent to the lens capsule. The resultant ex vivo explant when placed in culture is star shaped, with the adherent cells located in the points of the star. In response to the injury induced by the surgery, mesenchymal cells involved in repair move to the wound edges.
As shown in FIG. 2B wound healing across the denuded basement membrane is typically completed by day 3. Lens epithelial cells led by a leader cell population, which expresses the surface receptor CD44+ [42], move collectively to repopulate the denuded area of the wounded lens capsule (where the differentiated lens fiber cells were removed). FIG. 2C depicts the wound area over a three-day period. In FIGS. 3A and B CD44+ leader cell population that has migrated to the outside wound edge of the explants (FIG. 3A, left panel, right arrow) directs the collective migration of lens epithelial cells onto the rigid tissue culture substrate, a region we refer to as the extracapsular zone (ECZ). […] Therefore, within one model system we can assess epigenetic targeting strategies for preventing fibrosis and determine how these approaches will affect normal wound healing. This ex vivo model was used to investigate the epigenetic mechanisms (detailed below) involved in regulating cell reprogramming to a myofibroblast phenotype associated with lens fibrotic disease.
Next, we tested if manipulating histone de-methylase activity could change chromatin structure to block pro-fibrotic transcription factors from binding to DNA and the acquisition to a myofibroblast phenotype associated with fibrosis. […] Thus, treatment with GSKJ4 prevents αSMA expression in the ex vivo mock cataract surgery model.
Cells from the ex vivo mock cataract surgery explants were treated with vehicle or GSKJ4 for 24 hr. ECZ regions were treated 1 day after injury and inhibitor was washed away after 24 hour of treatment. We chose to add the inhibitor on day 1, during the time of open chromatin, the perfect timing to prevent cell reprogramming to a fibrotic phenotype. […]
(§2) Cells from the ex vivo mock cataract surgery explant were treated for 24 hour as indicated above with vehicle or GSK-J4. […] In FIG. 13B we determined the effect of GSKJ4 short-term treatment on wound healing. […]

The nature of data set [2]: evaluation of GSKJ1, GSKJ2, GSKJ4, GSKJ5: efficacy / in vitro studies. Conditions: for efficacy / activity: ethyl esters of GSKJ1 and GSKJ2; for potency in in vitro studies: over a control, data not shown. An excerpt:
(§3) To further review compounds in this class, we evaluated […]4, and GSKJ5. Based on our data, and review of the molecule, the highly polar carboxylate group of GSKJ1 and GSKJ2 restricts cellular permeability. […] Accordingly, for purposes of treating disease and disorders here, the most preferred active pharmaceutical compound is GSK-J4.

Data set [3] concerns ex vivo mock cataract surgery explants. Put plainly: wound healing (open wound area) in ex vivo mock cataract surgery explants. Format: cell-based, chick.
Description: as §1
As shown in FIG. 2B wound healing across the denuded basement membrane is typically completed by day 3. […]
We also determined whether GSKJ4 treatment affected wound healing. […] Open wound area (μm^2) was measured on Day 0 (D0) through Day 3 (D3) in the presence of vehicle control (DMSO) or GSKJ4. Open wound area was measured for each ex vivo capsule D0-D3 and presented in the graph+/− SEM. […]
as §2

A short description of data set [4]: evaluation of GSKJ1, GSKJ2, GSKJ4, GSKJ5: cellular permeability / bioavailability. Format: in vitro ADME.
Description: as §3

Data set [5] can be described thus: testing of GSK-J4 concentration range (efficacy and toxicity). The protocol:
For example, when administering GSK-J4 to a patient, an appropriate therapeutic range comprises: about 1 μM to 10 μM concentration for a liquid, topical vehicle. Suitable doses can be generated based upon the tissue to be treated and area to be treated. […] The LD50 is otherwise known to those of skill in the art based upon the molecule of interest. The GSK-J4 can be formulated with suitable excipients and into a suitable vehicle for delivery to a human patient.

The test system of data set [6] is FHL124 human lens cells. Put plainly: TGFβ-stimulated human lens cells, western blot for FN-EDA and Collagen I. The following applies: FHL124 cells stimulated with TGFβ, FIG. 11. Type of data set: cell-based. The protocol:
We also performed similar studies with human lens cell culture. FHL124 human lens cells, a non-transformed spontaneously generated human lens cell line from embryonic explants, were stimulated with Transforming Growth Factor β (TGFβ), a potent inducer of the fibrotic response, in the absence or presence of the UTX inhibitor GSKJ4. Western blotting was performed with antibodies to extracellular matrix molecules associated with fibrosis, including Fibronectin EDA (FN-EDA), a splice form of FN and Collagen I. FN EDA expression is tightly linked to myofibroblast differentiation and Collagen I is a defining feature of fibrosis/scarring. GAPDH was used as a loading control for WB analysis.

On to `CCOC(=O)CCNc1cc(N2CCc3ccccc3CC2)nc(-c2ccccn2)n1` [GSK-J4], for which the “myofibroblast emergence, short-term treatment” value in data set [1] (24 hour treatment, FIGS. 14A and B) is reported as “effective to block”. The αSMA expression entry in data set [1] (cells from ex vivo mock cataract surgery explants, FIG. 10A, B) is recorded as “prevents”. Also, the emergence of myofibroblasts entry in data set [1] (ex vivo mock cataract surgery model, FIG. 10A) was “effectively suppressed”. Further, the “Fn-EDA expression, short-term treatment” value in data set [1] (treated 24 hr from day 1 after injury, washed away, lysates day 3, western blot) is reported as “significantly inhibited”. In addition, the “αSMA expression, short-term treatment” value in data set [1] (treated 24 hr from day 1 after injury, washed away, lysates day 3, western blot (αSMA to GAPDH)) is “significantly inhibited; also recorded: effectively blocked”. Also, the efficacy / activity entry in data set [2] is listed as “greater efficacy”. For the same compound, the “wound healing (open wound area)” value in data set [3] (Day 0 through Day 3 in presence of GSKJ4 vs DMSO, FIG. 12) is “somewhat slowed but did not prevent”. Moreover, the “wound healing (open wound area), short-term treatment” value in data set [3] (treated at time of injury, day 0, for 24 hour, followed day 0 through day 4) is “does not affect”. For the same compound, the bioavailability result in data set [4] (ethyl ester masking the acid group) was “increased”. For the same compound, the efficacy by concentration entry in data set [5] (10 μM versus 1 μM) is recorded as “higher efficacy at 10 μM than the 1 μM”. Further, the toxicity result in data set [5] (100 μM) is on record as “began to show signs of toxicity”. Further, in data set [6], the “TGFβ induced expression of Collagen I” value is recorded as “blocked” and the “TGFβ induced expression of FN EDA” value is “blocked”.
With `O=C(O)CCNc1cc(N2CCc3ccccc3CC2)nc(-c2ccccn2)n1` [GSKJ1], the “potency in in vitro studies” value in data set [2] is recorded as “potent over a control”. Besides, the cellular permeability result in data set [4] is on record as “restricts”.
As to `O=C(O)CCNc1cc(N2CCc3ccccc3CC2)nc(-c2cccnc2)n1` [GSKJ2], the “potency in in vitro studies” value in data set [2] was “potent over a control”. The cellular permeability result in data set [4] (highly polar carboxylate group) was “restricts”.
Regarding `CCOC(=O)CCNc1cc(N2CCc3ccccc3CC2)nc(-c2cccnc2)n1` [GSKJ5], the efficacy / activity result in data set [2] is “inactive”.
